Results as given in US20120230951A1 (priority 2011, published 2012).

Test system: GT-1a pRLuc H771b 75 S/I subgenomic replicon cell line
Assay: HCV GT-1a replicon luciferase reporter assay
Format: cell-based
Conditions: Hepatitis C virus, GT1A, 72 h, read-out: GT-1a (IC50) (nM)
Source text: Determination of compounds HCV GT1b inhibitory replicon activity using the replicon luciferase reporter assay
The 2209-23 cell line was developed at Roche by stable transfection of the hepatoma cell line Huh-7 with a GT-1b Con1 subgenomic bicistronic replicon as previously described. Subgenomic replicon cell line was established in cured Huh7 cells, obtained from R. Bartenschlager (J. Virol. 2003 March; 77 (5):3007-19) The GT-1a H77 subgenomic replicon vector pRLuc H771b 75 S/I, was created by replacing the non structural region of the GT-1b Con1 subgenomic replicon by the one of the H77 strain, except for the first 75 amino acids of the NS3 protein that are from GT-1b Con1 strain. (J. Virol. 2001 77:5352-59) The GT-1a pRLuc H771b 75 S/I subgenomic replicon cell line was established in cured Huh7 cells, obtained from R. Bartenschlager. (J. Virol. 2003 March; 77 (5):3007-19)
All the subgenomic replicon cell lines were cultured in Dulbecco's Modified Eagle Medium (DMEM-Glutamax™-I; Invitrogen Cat #10569-010). The medium was supplemented with 10% Fetal Bovine Serum (Invitrogen Cat #10082-147), 1% penicillin/streptomycin (Mediatech Cat #30-002-CI) and 500 μg/ml of G418 (Mediatech Cat #30-234-CI). Cells were maintained at 37° C. in a humidified 5% CO2 atmosphere.
2209-23 cells were plated at a cell density of 5000 cells per well in 96 well plates (Becton Dickinson, Cat #35 3296). Cells were plated in 90 μl of Dulbecco's Modified Eagle Medium (DMEM-Glutamax™-I), (Invitrogen Cat #10569-010) medium was supplemented with 5% Fetal Bovine Serum (Invitrogen Cat #10082-147), 1% penicillin/streptomycin (Mediatech Cat #30-002-CI). The pRluc H771b 75 S/I cells were plated in 96-well plate at 3000 cells/well in DMEM-Glutamax™-I containing 5% FBS and 1% penicillin/streptomycin in 90 μl final volume. Cells were allowed to equilibrate for 24 hours at 37° C. and 5% CO2 at which time compounds were added. Compounds (or medium as a control) were added 24 hours post-plating in 3 fold dilutions at a final DMSO concentration of 1% in 10 ul volume. Renilla luciferase reporter signal was read 72 hours after addition of compounds using the Renilla Luciferase Assay System (Promega, cat #E2820). EC50 values were defined as the compound concentration at which a 50% reduction in the levels of renilla luciferase reporter was observed as compared to control samples in the absence of compound and was determined by non-linear fitting of compound dose-response data. The EC50 was approximated if maximum percentage inhibition was less than 90% and more than 70%.

Compound | IC50 [nM]
COC(=O)N[C@H]1CCc2cccc3c2N(C1=O)[C@H](c1ncc(-c2ccc(-c4ccc(-c5cnc([C@@H]6CCCN6C(=O)[C@@H](NC(=O)OC)C(C)C)[nH]5)cc4F)cc2)[nH]1)C3 [Compound I-37, {(2S,5S)-2-[5-(2′-Fluoro-4′-{2-[(S)-1-((S)-2-methoxycarbonylamino-3-methyl-butyryl)-pyrrolidin-2-yl]-1H-imidazol-4-yl}-biphenyl-4-yl)-1H-imidazol-2-yl]-4-oxo-1,2,4,5,6,7-hexahydro-azepino[3,2,1-hi]indol-5-yl}-carbamic acid methyl ester] | 5.22
COC(=O)N[C@H]1CCc2cccc3c2N(C1=O)[C@H](c1ncc(-c2ccc(-c4ccc(-c5cnc([C@@H]6CCCN6C(=O)[C@@H](NC(=O)OC)C(C)C)[nH]5)cc4C#N)cc2)[nH]1)C3 [Compound I-38, {(2S,5S)-2-[5-(2′-Cyano-4′-{2-[(S)-1-((S)-2-methoxycarbonylamino-3-methyl-butyryl)-pyrrolidin-2-yl]-1H-imidazol-4-yl}-biphenyl-4-yl)-1H-imidazol-2-yl]-4-oxo-1,2,4,5,6,7-hexahydro-azepino[3,2,1-hi]indol-5-yl}-carbamic acid methyl ester] | 22.4
COC(=O)N[C@H]1CCc2cccc3c2N(C1=O)[C@H](c1ncc(-c2ccc(-c4ccc(-c5cnc([C@@H]6C[C@@H](C#N)CN6C(=O)[C@@H](NC(=O)OC)C(C)C)[nH]5)cc4)cc2)[nH]1)C3 [Compound I-39, {(2S,5S)-2-[5-(4′-{2-[(2S,4R)-4-Cyano-1-((S)-2-methoxycarbonylamino-3-methyl-butyryl)-pyrrolidin-2-yl]-3H-imidazol-4-yl}-biphenyl-4-yl)-1H-imidazol-2-yl]-4-oxo-1,2,4,5,6,7-hexahydro-azepino[3,2,1-hi]indol-5-yl}-carbamic acid methyl ester] | 5.34
COC(=O)N[C@H]1CCc2cccc3c2N(C1=O)[C@H](c1ncc(-c2ccc(-c4ccc(-c5cnc([C@@H]6C[C@H](C#N)CN6C(=O)[C@@H](NC(=O)OC)C(C)C)[nH]5)cc4)cc2)[nH]1)C3 [Compound I-40, {(2S,5S)-2-[5-(4′-{2-[(2S,4S)-4-Cyano-1-((S)-2-methoxycarbonylamino-3-methyl-butyryl)-pyrrolidin-2-yl]-3H-imidazol-4-yl}-biphenyl-4-yl)-1H-imidazol-2-yl]-4-oxo-1,2,4,5,6,7-hexahydro-azepino[3,2,1-hi]indol-5-yl}-carbamic acid methyl ester] | 7.85
COC(=O)N[C@H]1CCc2cccc3c2N(C1=O)[C@H](c1ncc(-c2ccc(-c4ccc5cc(-c6cnc([C@@H]7C[C@H](C#N)CN7C(=O)[C@@H](NC(=O)OC)C(C)C)[nH]6)ccc5c4)cc2)[nH]1)C3 [Compound I-41, {(2S,5S)-2-{5-[4-(6-{2-[(2S,4S)-4-Cyano-1-((S)-2-methoxycarbonylamino-3-methyl-butyryl)-pyrrolidin-2-yl]-3H-imidazol-4-yl}-naphthalen-2-yl)-phenyl]-1H-imidazol-2-yl]-4-oxo-1,2,4,5,6,7-hexahydro-azepino[3,2,1-hi]indol-5-yl}-carbamic acid methyl ester] | 2.49
COC(=O)N[C@H]1CCc2cccc3c2N(C1=O)[C@H](c1ncc(-c2ccc(-c4ccc5cc(-c6cnc([C@@H]7CC(F)(F)CN7C(=O)[C@@H](NC(=O)OC)C(C)C)[nH]6)ccc5c4)cc2)[nH]1)C3 [Compound I-42, {(2S,5S)-2-{5-[4-(6-{2-[(S)-4,4-Difluoro-1-((S)-2-methoxycarbonylamino-3-methyl-butyryl)-pyrrolidin-2-yl]-3H-imidazol-4-yl}-naphthalen-2-yl)-phenyl]-1H-imidazol-2-yl}-4-oxo-1,2,4,5,6,7-hexahydo-azepino[3,2,1-hi]indol-5-yl}-carbamic acid methyl ester] | 1.17
COC[C@H](NC(=O)OC)C(=O)N1CCC[C@H]1c1ncc(-c2ccc(-c3ccc(-c4cnc([C@@H]5Cc6cccc7c6N5C(=O)[C@@H](NC(=O)OC)CC7)[nH]4)cc3)cc2)[nH]1 [Compound I-43] | 5.64
COC(=O)N[C@H]1CCc2cccc3c2N(C1=O)[C@H](c1ncc(-c2ccc(-c4ccc(-c5cnc([C@@H]6CCCN6C(=O)[C@@H](NC(=O)OC)C6CC6)[nH]5)cc4)cc2)[nH]1)C3 [Compound I-44] | 11.4
CC[C@H](NC(=O)OC)C(=O)N1CCC[C@H]1c1ncc(-c2ccc(-c3ccc(-c4cnc([C@@H]5Cc6cccc7c6N5C(=O)[C@@H](NC(=O)OC)CC7)[nH]4)cc3)cc2)[nH]1 [Compound I-45] | 17.1
COCC[C@H](NC(=O)OC)C(=O)N1CCC[C@H]1c1ncc(-c2ccc(-c3ccc(-c4cnc([C@@H]5Cc6cccc7c6N5C(=O)[C@@H](NC(=O)OC)CC7)[nH]4)cc3)cc2)[nH]1 [Compound I-46] | 2.96
COC(=O)N[C@H]1CCc2cccc3c2N(C1=O)[C@H](c1ncc(-c2ccc(-c4ccc(-c5cnc([C@@H]6CCCN6C(=O)C6(NC(=O)OC)COC6)[nH]5)cc4)cc2)[nH]1)C3 [Compound I-47] | 110
COC(=O)NC(C(=O)N1CCC[C@H]1c1ncc(-c2ccc(-c3ccc(-c4cnc([C@@H]5Cc6cccc7c6N5C(=O)[C@@H](NC(=O)OC)CC7)[nH]4)cc3)cc2)[nH]1)C1CCOCC1 (stereo partly drawn) [Compound I-48] | 2.83
COC(=O)N[C@@H](C)C(=O)N1CCC[C@H]1c1ncc(-c2ccc(-c3ccc(-c4cnc([C@@H]5Cc6cccc7c6N5C(=O)[C@@H](NC(=O)OC)CC7)[nH]4)cc3)cc2)[nH]1 [Compound I-49, {(2S,5S)-2-[5-(4-{2-[(S)-1-((S)-2-Methoxycarbonylamino-propionyl)-pyrolidin-2-yl]-3H-imidazol-4-yl}-biphenyl-4-yl)-1H-imidazol-2-yl]-4-oxo-1,2,4,5,6,7-hexahydro-azepino[3,2,1-hi]indol-5-yl}-carbamic acid methyl ester] | 3.91
CC[C@H](C)[C@H](NC(=O)OC)C(=O)N1CCC[C@H]1c1ncc(-c2ccc3nc(-c4ccc(-c5cnc([C@@H]6Cc7cccc8c7N6C(=O)[C@@H](NC(=O)OC)CC8)[nH]5)cc4)cnc3c2)[nH]1 [Compound I-53, ((2S,5S)-2-{5-[4-(6-{2-[(S)-1-((2S,3S)-2-Methoxycarbonylamino-3-methyl-pentanoyl)-pyrrolidin-2-yl]-3H-imidazol-4-yl}-quinoxalin-2-yl)-phenyl]-1H-imidazol-2-yl}-4-oxo-1,2,4,5,6,7-hexahydroazepino[3,2,1-hi]indol-5yl)-carbamic acid methyl ester] | 1.36
COC(=O)N[C@H]1CCc2cccc3c2N(C1=O)[C@H](c1ncc(-c2ccc(-c4cnc5cc(-c6cnc([C@@H]7CCCN7C(=O)[C@@H](NC(=O)OC)C(C)(C)C)[nH]6)ccc5n4)cc2)[nH]1)C3 [Compound I-54, ((2S,5S)-2-{5-[4-(6-{2-[(S)-1-((S)-2-Methoxycarbonylamino-3,3-dimethyl-butyryl)-pyrrolidin-2-yl]-3H-imidazol-4-yl}-quinoxalin-2-yl)-phenyl]-1H-imidazol-2-yl}-4-oxo-1,2,4,5,6,7-hexahydro-azepino[3,2,1-hi]indol-5-yl)-carbamic acid methyl ester] | 0.949
